Experimental data reported in patent publication US20140221656A1, “CRYSTALLINE SOLVATES OF 6-(PIPERIDIN-4-YLOXY)-2H-ISOQUINOLIN-1-ONE HYDROCHLORIDE” (SANOFI, priority 2011, published 2014).
Entries after “also recorded” stand apart in the source; their conditions may differ. Where a name gives a salt, the structure may show the parent alone.

Columns and labels:
Assay type in all cases: physicochemical
[1] = Humidity-controlled XRPD in a humidity chamber; details: for time until transformation into the dihydrate at 95% relative humidity: held at 95% r.h., hydrochloride
Experimental: When humidity-controlled XRPD was performed at 25 and 40° C., widely identical results were obtained.
Exposure to elevated humidity causes transformation to the dihydrate as determined with humidity-controlled XRPD performed at 25° C. […] Phase 1 transformed into the dihydrate after about 15 min at 95%, which in turn changed to phase 2 after about 40 min at 2% r.h.
Exposure to elevated humidity causes transformation to the dihydrate as determined by humidity-controlled XRPD at 25° C. […] As a result phase 3 transformed into the hydrate after about 30 min at 95%, which in turn changed to phase 2 after about 30 min at 2% r.h.
Exposure to elevated humidity causes transformation to the dihydrate as determined by humidity-controlled XRPD. […] As a result phase 4 transformed into the dihydrate after about 15 min at 95%, which in turn changed to phase 2 after about 20 min at 2% r.h.
All X-ray powder diffraction was performed with Stoe Stadi-P transmission diffractometers using CuKα1 radiation (Lambda is 1.54060 Angström). For room temperature powder diffraction, linear position sensitive detectors were used; while for temperature-resolved XRPD image plate position sensitive detectors (IP-PSDs) were used. Unless stated otherwise, X-ray powder diffraction was performed at room temperature. Dry samples were investigated in a flat preparation whereas suspensions were investigated in quartz glass capillaries. The measured data were evaluated and plotted with the Software WinXPOW V2.12.

[2] = Maturation experiments (slurry conversion), relative stability of polymorphs and hydrate; details: for relative thermodynamic stability among the phases: suspensions of phase mixtures in dry organic solvents, 0 to 40° C., hydrochloride
Experimental: By maturation experiments (slurry conversion) at the given temperature the relative stability of the polymorphs of compound (I) and the hydrate was investigated.
The following maturation experiment was performed by stirring the suspension under the specified conditions, starting from the dihydrate. The sample was investigated by XRPD in suspension, after vacuum filtration as well as after drying over night at 40° C. in vacuum (<50 mbar). The isolated material was also investigated by DSC and TGA.
(a) Maturation of 0.210 g dihydrate of compound (I) in 0.4 mL of water at 20° C. for 35 days. Similar, maturation of the dihydrate was done in water/methanol (vol/vol 1:1) and in water/ethanol (vol/vol 1:1).
The following maturation experiments were performed by stirring the suspension under the specified conditions and isolating the solid by vacuum filtration, starting from dihydrate of compound (I). The sample was investigated by XRPD in suspension, after vacuum filtration as well as after drying. The isolated material was also investigated by DSC and TGA.
(b) Maturation of 0.203 g of dihydrate of compound (I) in 1.2 mL of methanol at 20° C. for 35 days.
(c) Maturation was also done as in (b) by using ethanol, 1-propanol or 2-propanol.
(d) Maturation of […] of dihydrate of compound (I) in 2.0 mL of 2-butanol at 20° C. for 35 days.
The following maturation experiments of suspensions of phase mixtures of the dihydrate of compound (I) and phases consisting of polymorphs 1, 3 and 4 were performed at 0, 20 and 40° C. The product was isolated by vacuum filtration and analyzed after drying.
(e) Maturation of a mixture of 0.3 mg phase 1, 23.9 mg phase 3, 29.9 mg phase 4 and 27.9 mg of the dihydrate in 0.7 mL 2-propanol at 0° C. for 2 weeks.
(f) Maturation of a mixture of 0.3 mg phase 1, 27.2 mg phase 3, 18.1 mg phase 4 and 29.6 mg of the dihydrate in 2.0 mL 2-butanol at 0° C. for 2 weeks.
(g) Similar experiments as in e) and f) were done with corresponding mixtures of phase 1, phase 3, phase 4 and the dihydrate in 2-propanol and 2-butanol at 20° C. and at 40° C., respectively.

[3] = Storage at 20° C. and 75% relative humidity
Experimental: Also storage of phase 1 at 20° C. and 75% relative humidity caused complete conversion to the dihydrate within 3 weeks. The rate of conversion correlates with the relative humidity.
(§1) Also storage of phase 3 at 20° C. and 75% relative humidity caused complete conversion to the dihydrate within 3 weeks. The rate of conversion correlates with the relative humidity. When suspended in water, complete transformation into the dihydrate was observed almost immediately (<10 min).
Also storage of phase 4 at 20° C. and 75% relative humidity caused complete conversion to the dihydrate within 3 weeks. The rate of conversion apparently correlates with the relative humidity.

[4] = Dynamic vapor sorption (DVS) water vapor sorption and desorption isotherms; details: DVS 25° C.; for hygroscopicity / water content as a function of relative humidity: FIG. 13 and 14
Experimental: Moreover, the dihydrate may also be characterized by its DVS (dynamic vapor sorption) water vapor sorption and desorption isotherms measured at 25° C. as shown in FIG. 3. Before starting the sorption cycle the dihydrate probe is treated with dry nitrogen gas resulting in a transformation into phase 2 as shown by humidity resolved XRPD. […] In the sorption cycle the water content of the probe quickly increases when phase 2 is exposed to relative humidities between 1 and 20% and remains almost constant between 20 and 95%. In the desorption cycle the water content remains almost constant when the dihydrate is exposed to relative humidities between 95% and 20%. A weight loss starts below 20% relative humidity and becomes strong below 10%, especially below 5%. The change in mass at low relative humidity is completely reversible and when the humidity increases again, the rehydration proceeds rapidly with small samples. However, for bulk samples rehydration of over-dried samples can take considerably longer and rehydration may require several days. Almost identical water sorption and desorption isotherms are observed at 40° C.
With decreasing humidity the dihydrate converts back at low humidity (below about 10% r.h.) into phase 2 (cycle 1, desorption). Phase 2 then converts into the dihydrate with increasing humidity and along the same isotherm it converts back with decreasing humidity into polymorph 2 (cycle 2, see also FIG. 3)
Moisture sorption/desorption isotherms were recorded on a DVS-1 from Surface Measurement Systems. […] Typical total measurement times for both cycles are about 20-30 hours.

[5] = Suspension in water, transformation into the dihydrate
Experimental: as §1

[6] = Stability of the solvate outside the mother liquor; details: in the presence of humidity starts to transform to the hydrate
From the text: Thus, a further aspect of the present invention relates to the use of the methyl acetate solvate of compound (I) for the production of the hydrate, for example by subjecting it to conditions, such as an elevated temperature and/or humidity which facilitate the loss of methyl acetate and attracting water.

[7] = Drying of the dihydrate, retention of crystal structure; details: dried dihydrate
From the text: In a further embodiment of the hydrate the water content is 11.4% (w/w). in a further embodiment the hydrate contains 2.0 molecules water per molecule (I). Although the hydrate phase typically contains about 10-12.5% water it can also occur with lower water content. The crystal structure of the hydrate remains even if the dihydrate is dried and the remaining water content is down to about 3%. Water uptake is reversible if humidity in the environment is raised again. The water content in the isolated product depends on the drying conditions used during work up of the hydrate after crystallisation.

[8] = Storage under usual storage conditions (25° C./65% relative humidity)
Experimental: Moreover, the corresponding amorphous material is hygroscopic and the water content varies much stronger with the relative humidity compared to the dihydrate. This water uptake and variability in water content makes precise dosing during drug product manufacturing difficult. In contrast, the dihydrate has been proven to be stable for more than two years under usual storage conditions (no detectable decomposition at 25° C./65% relative humidity). Accordingly, the crystalline dihydrate is therefore the preferred solid form for drug product manufacturing.

[9] = Thermogravimetric analysis (TGA)
Experimental: On heating the dihydrate in a dry environment, a significant weight loss starts already at slightly elevated temperature and ends at about 110° C.
In this temperature range, transformation to phase 3 was observed as determined by XRPD.
The thermogravimetric analyses were performed with a METTLER TGA851e (module TGA/SDTA851e/SF1100/042). 100 μl Al crucibles sealed with lid were used. The sample changer punches a pinhole into the lid immediately before the start of the measurement. The oven cell is purged with a nitrogen gas flow of about 50 mL/min. The measurements typically start with a hold time of about 25 min at 25° C., followed by heating of the sample with a rate of 10°/min. Temperature and weight loss were checked by a calcium oxalate hydrate reference sample.

[10] = Temperature-resolved XRPD
Experimental: Based on these findings the dihydrate is stable below 90° C. and thus also at room temperature. Therefore, in comparison to the other described anhydrous polymorphs, the dihydrate is particularly suitable when a high stability is desired. It is the only one that can be stored at relative humidities between 20 and 95% in different environments below 90° C., which are usual storage conditions, without the risk of transformation into another described crystalline phase. Even if exposed to a very dry environment, a possible water loss is reversible and the missing water is gained back once the compound is back in an environment having usual humidity conditions. Therefore, the dihydrate is in particular suitable for the preparation of medicaments and pharmaceutical compositions with improved stability.
All X-ray powder diffraction was performed with Stoe Stadi-P transmission diffractometers using CuKα1 radiation (Lambda is 1.54060 Angström). For room temperature powder diffraction, linear position sensitive detectors were used; while for temperature-resolved XRPD image plate position sensitive detectors (IP-PSDs) were used. Unless stated otherwise, X-ray powder diffraction was performed at room temperature. […] The measured data were evaluated and plotted with the Software WinXPOW V2.12.

## O=c1[nH]ccc2cc(OC3CCNCC3)ccc12 [phase 4, 6-(Piperidin-4-yloxy)-2H-isoquinolin-1-one hydrochloride]
[1]; humidity-controlled XRPD
  time until transformation into the dihydrate at 95% relative humidity: about 15 min
[2]
  relative thermodynamic stability among the phases: only a metastable one
[3]
  time to complete conversion to the dihydrate on storage: ≤ 3 weeks

## O=c1[nH]ccc2cc(OC3CCNCC3)ccc12 [phase 3, 6-(Piperidin-4-yloxy)-2H-isoquinolin-1-one hydrochloride]
[4]; cycle 1, sorption
  relative humidity above which phase changes into the dihydrate: above 80%
[1]; humidity-controlled XRPD
  time until transformation into the dihydrate at 95% relative humidity: about 30 min
[5]
  time to complete transformation into the dihydrate when suspended in water: < 10 min
[2]
  relative thermodynamic stability among the phases: thermodynamically most stable anhydrous form; also recorded: most stable anhydrous phase
[3]
  time to complete conversion to the dihydrate on storage: ≤ 3 weeks

## O=c1[nH]ccc2cc(OC3CCNCC3)ccc12 [methyl acetate solvate, 6-(Piperidin-4-yloxy)-2H-isoquinolin-1-one hydrochloride]
[6]
  stability outside the mother liquor (in words): only moderately stable

## O=c1[nH]ccc2cc(OC3CCNCC3)ccc12 [phase 1, 6-(Piperidin-4-yloxy)-2H-isoquinolin-1-one hydrochloride]
[1]; humidity-controlled XRPD
  time until transformation into the dihydrate at 95% relative humidity: about 15 min
[2]
  relative thermodynamic stability among the phases: only a metastable polymorph
[3]
  time to complete conversion to the dihydrate on storage: ≤ 3 weeks

## O=c1[nH]ccc2cc(OC3CCNCC3)ccc12 [dihydrate, 6-(Piperidin-4-yloxy)-2H-isoquinolin-1-one hydrochloride dihydrate]
[4]; hydrochloride dihydrate
  hygroscopicity / water content as a function of relative humidity: maintains a quite constant water content
[4]; cycle 1, desorption
  relative humidity below which the dihydrate converts into phase 2: below 10 % r.h.
[4]; desorption cycle
  relative humidity below which weight loss starts: below 20%
[7]
  remaining water content down to which the hydrate crystal structure remains on drying: about 3%
[8]
  time proven stable under usual storage conditions (no detectable decomposition): more than two
[9]; heating in a dry environment, ends at about 110° C.
  TGA weight loss (water) on heating: 10.8 mass-%
[1]; humidity chamber XRPD, r.h. cycled between 2% and 95%
  relative humidity at which the hydrate reversibly transforms into phase 2: 2 % r.h.
[1]; humidity-controlled XRPD, held at 2% r.h., hydrochloride dihydrate
  time until the dihydrate changed to phase 2 at 2% r.h.: about 30 min
[10]; based on temperature-resolved XRPD findings
  temperature below which the form is stable: below 90 °C
[10]; heating, accompanied by loss of water
  temperature at which transformation to phase 3 starts: about 90 °C
[2]; 2-butanol, 20° C., 35 days, after drying
  solid phase after maturation in 2-butanol: Polymorph 4 was obtained
[2]; methanol, ethanol, 1-propanol or 2-propanol, 20° C., 35 days
  solid phase after maturation in alcohols: polymorph 3 was obtained
[2]; water, water/methanol 1:1, water/ethanol 1:1, 20° C., 35 days
  solid phase after maturation in aqueous media: remained as dihydrate

## O=c1[nH]ccc2cc(OC3CCNCC3)ccc12 [1,4-dioxane solvate, 6-(Piperidin-4-yloxy)-2H-isoquinolin-1-one hydrochloride×0.5 1,4-dioxane solvate]
[9]; from TGA / temperature-resolved XRPD
  stability of the solvate (in words): relatively stable
[9]; mainly in a temperature range from 80 to 120° C.
  TGA weight loss: 16.6%

## O=c1[nH]ccc2cc(OC3CCNCC3)ccc12 [amorphous material, 6-(Piperidin-4-yloxy)-2H-isoquinolin-1-one hydrochloride]
[4]; hydrochloride
  hygroscopicity / water content as a function of relative humidity: hygroscopic
